Test results from patent US6359112B2 (Fraunhofer-Gesellschaft zur Forferung der angewandten …, priority 1997, dated 2002).
Read-outs that look alike come from different tables or passages of the source. No end group written: not given here.

How the values were obtained:
Rat Insulinoma (RIN5 mf) = test system: Rat Insulinoma (RIN5 mf)
Procedure: (§1) FIG. 4 is a graph of MTT reduction as a function of concentration of NFGAIL, SEQ ID NO: 3.
(§2) Suspensions of the peptide aggregate (produced as described as above) were tested by means of a Rat Insulinoma (RIN5 mf) and a human astroglioma-cell series (HTB-14) for toxicity. The newly dissolved peptides were also tested for cytotoxicity.

[1] = test system: human astroglioma-cell series (HTB-14)
Procedure: as §1, §2

[2] = aggregated form (suspension of peptide aggregate)
[3] = soluble form (newly dissolved peptide)

## NFGAIL [NFGAIL]
Rat Insulinoma (RIN5 mf); [2]
  Cytotoxicity: cyto-toxic
Rat Insulinoma (RIN5 mf); [3]
  Cytotoxicity: no toxicity
[1]; [2]
  Cytotoxicity: cyto-toxic
[1]; [3]
  Cytotoxicity: no toxicity
